# Results published in US7271165B2, “Rifamycin analogs and uses thereof” (priority 2003, dated 2007).
# Columns and labels:
# E coli = assay: MIC assay, E coli; format: cell-based
# H. flu = format: cell-based, H. influenza
# E. faecalis = assay: MIC assay, E. faecalis; format: cell-based, Enterococcus faecalis
# S. aureus = assay: MIC assay, S. aureus; format: cell-based, Staphylococcus aureus
# S. pneumo. = assay: MIC assay, S. pneumo.; format: cell-based, Streptococcus pneumoniae
compound,measurement,setting,value
CO[C@H]1/C=C/OC2(C)Oc3c(C)c(O)c4c(=O)c(c5oc6cc(N7CC8CC7CN8)cc(O)c6nc-5c4c3C2=O)NC(=O)/C(C)=C\C=C\[C@H](C)[C@H](O)[C@@H](C)[C@@H](O)[C@@H](C)[C@H](OC(C)=O)[C@@H]1C (some centres unmarked),melting point,,> 330 °C
CO[C@H]1/C=C/OC2(C)Oc3c(C)c(O)c4c(=O)c(c5oc6cc(N7CC8CCC7CN8)cc(O)c6nc-5c4c3C2=O)NC(=O)/C(C)=C\C=C\[C@H](C)[C@H](O)[C@@H](C)[C@@H](O)[C@@H](C)[C@H](OC(C)=O)[C@@H]1C (some centres unmarked),melting point,,> 300 °C
CO[C@H]1/C=C/O[C@@]2(C)Oc3c(C)c(O)c4c(=O)c(c5n(C)c6ccccc6nc-5c4c3C2=O)NC(=O)/C(C)=C\C=C\[C@H](C)[C@H](O)[C@@H](C)[C@@H](O)[C@@H](C)[C@H](O)[C@@H]1C [Compound 131],MIC (μg/mL) E coli,E coli,8 µg/mL
same,MIC (μg/mL) H. flu,H. flu,2 µg/mL
same,MIC (μg/mL) E. faecalis,E. faecalis,2 µg/mL
same,MIC (μg/mL) S. aureus,S. aureus,0.5 µg/mL
same,MIC (μg/mL) S. pneumo.,S. pneumo.,0.5 µg/mL
C=CCc1cc(C)cc2nc3c4c5c6c(C)c(O)c4c(=O)c(c-3oc12)NC(=O)C(C)=CC=CC(C)C(O)C(C)C(O)C(C)C(O)C(C)C(OC)C=COC(C)(O6)C5=O (centres unmarked) [Compound 132],MIC (μg/mL) E coli,E coli,>8 µg/mL
same,MIC (μg/mL) H. flu,H. flu,0.5 µg/mL
same,MIC (μg/mL) E. faecalis,E. faecalis,2 µg/mL
same,MIC (μg/mL) S. aureus,S. aureus,0.06 µg/mL
same,MIC (μg/mL) S. pneumo.,S. pneumo.,0.03 µg/mL
CO[C@H]1/C=C/O[C@@]2(C)Oc3c(C)c(O)c4c(=O)c(c5oc6cccc(O)c6nc-5c4c3C2=O)NC(=O)/C(C)=C\C=C\[C@H](C)[C@H](O)[C@@H](C)[C@@H](O)[C@@H](C)[C@H](O)[C@@H]1C [Compound 133],MIC (μg/mL) E coli,E coli,8 µg/mL
same,MIC (μg/mL) H. flu,H. flu,0.25 µg/mL
same,MIC (μg/mL) E. faecalis,E. faecalis,0.12 µg/mL
same,MIC (μg/mL) S. aureus,S. aureus,0.004 µg/mL
same,MIC (μg/mL) S. pneumo.,S. pneumo.,0.002 µg/mL
